Structures can show the parent of a compound that is named as a salt. Calls of active or inactive are those of the source.
What was measured:
[1] = viability loss in HEK293T cells – cell-based, cherry-picks, cytotoxicity control for HIV Vif inhibitor project, dose response (AID 652208); format: functional
Cytochrome P450 1A2 = molecular target: T1, Cytochrome P450 1A2 (Homo sapiens, UniProt P05177);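 also: PubChem cytochrome P450 panel assay, CYP1A2 panel member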
T1 sequence (P05177 whole entry): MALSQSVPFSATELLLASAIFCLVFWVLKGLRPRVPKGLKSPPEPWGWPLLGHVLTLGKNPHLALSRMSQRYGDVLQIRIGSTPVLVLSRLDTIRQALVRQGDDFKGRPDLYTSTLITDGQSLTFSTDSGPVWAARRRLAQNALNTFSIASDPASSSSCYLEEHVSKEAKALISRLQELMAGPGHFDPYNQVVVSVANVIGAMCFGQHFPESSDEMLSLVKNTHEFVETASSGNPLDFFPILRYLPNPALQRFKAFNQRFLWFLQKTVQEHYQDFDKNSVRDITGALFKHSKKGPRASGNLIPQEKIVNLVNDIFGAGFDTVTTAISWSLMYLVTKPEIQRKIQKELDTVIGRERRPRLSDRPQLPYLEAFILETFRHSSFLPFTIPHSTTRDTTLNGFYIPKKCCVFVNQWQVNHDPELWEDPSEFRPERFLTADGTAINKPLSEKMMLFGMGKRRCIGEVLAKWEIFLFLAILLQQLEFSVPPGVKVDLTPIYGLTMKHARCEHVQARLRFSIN

Cytochrome P450 3A4 = Cytochrome P450 3A4 (Homo sapiens, UniProt P08684);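 also: CYP3A4 tested as one member of a cytochrome P450 panel screen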
[2] = molecular target: 5-hydroxytryptamine receptor 2A (Mus musculus, UniProt P35363); format: functional, cell-based;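 also: CHO-K1 cells with tagged receptor and beta-arrestin; agonist potency measured as compound-induced activation of the receptor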
Mu-type opioid receptor = Mu-type opioid receptor (Homo sapiens, UniProt P35372); format: functional, cell-based;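 also: U2OS cells with beta-arrestin recruitment to OPRM1 by beta-gal complementation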
[3] = Counterscreen for activators of the function of SWI/SNF related, matrix associated, actin dependent regulator of chromatin, subfamily a, member 2 (SMARCA2, BRM): Luminescence-based cell-based high throughput dose response assay to identify non-selective compounds using the VP16 reporter assay.; format: functional
[4] = molecular target: SWI/SNF-related matrix-associated actin-dependent regulator of chromatin subfamily A member 2 (Homo sapiens, UniProt P51531); experiment: Luminescence-based cell-based high throughput dose response assay to identify activators of the function of SWI/SNF related, matrix associated, actin dependent regulator of chromatin, subfamily a, member 2 (SMARCA2, BRM).; format: functional
Streptococcus = experiment: GAS UMAA2166 growth inhibition – luminescence, BacTiterGlo, counter-screen for streptokinase expression inhibitor project, dose response (AID 1915); format: functional, organism-based;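 also: potency for reduction of bacterial viability or growth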
[5] = Counterscreen for inhibitors of Trypanosoma brucei methionyl tRNA synthetase (MetRS): Luminescence-based cell-based high throughput dose response assay to identify compounds that are cytotoxic to Jurkat human T lymphocyte cells.; format: functional
[6] = molecular target: T2, Methionyl-tRNA synthetase, putative (Trypanosoma brucei brucei, UniProt Q38C91); format: functional, Trypanosoma brucei brucei strain 927/4 GUTat10.1
T2 sequence (Q38C91 whole entry): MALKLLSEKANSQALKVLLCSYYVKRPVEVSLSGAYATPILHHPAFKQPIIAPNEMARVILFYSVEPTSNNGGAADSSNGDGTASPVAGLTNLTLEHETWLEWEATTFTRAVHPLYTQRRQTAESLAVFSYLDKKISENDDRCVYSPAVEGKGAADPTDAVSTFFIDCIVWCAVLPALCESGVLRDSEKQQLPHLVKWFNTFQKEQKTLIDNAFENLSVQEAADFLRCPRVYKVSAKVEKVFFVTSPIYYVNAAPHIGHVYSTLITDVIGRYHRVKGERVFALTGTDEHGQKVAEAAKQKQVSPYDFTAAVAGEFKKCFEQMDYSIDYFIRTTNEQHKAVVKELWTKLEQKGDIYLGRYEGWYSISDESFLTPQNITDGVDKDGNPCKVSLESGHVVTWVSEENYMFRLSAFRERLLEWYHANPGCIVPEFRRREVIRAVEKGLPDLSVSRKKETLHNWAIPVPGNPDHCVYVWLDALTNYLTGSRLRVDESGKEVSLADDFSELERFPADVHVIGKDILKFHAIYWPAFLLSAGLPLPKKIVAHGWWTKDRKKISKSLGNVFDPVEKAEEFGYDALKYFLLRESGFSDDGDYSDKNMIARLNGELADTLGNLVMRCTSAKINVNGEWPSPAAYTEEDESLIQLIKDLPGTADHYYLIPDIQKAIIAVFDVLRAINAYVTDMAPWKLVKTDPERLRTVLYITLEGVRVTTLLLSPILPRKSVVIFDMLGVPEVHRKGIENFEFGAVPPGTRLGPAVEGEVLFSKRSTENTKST

[7] = molecular target: T2, Methionyl-tRNA synthetase, putative; format: functional, Trypanosoma brucei brucei strain 927/4 GUTat10.1; remark: listed apart in the source
[8] = test system: Streptococcus sp. 'group A'; experiment: Streptococcus pyogenes SK(-)GAS viability under kanamycin – luminescence, BacTiterGlo, confirmation, counter-screen for streptokinase expression inhibitor project, dose response (AID 1900); format: functional, organism-based
Streptokinase A = molecular target: T3, Streptokinase A (Streptococcus pyogenes serotype M1, UniProt P10520); experiment: viability-normalized secreted streptokinase activity reduction – plasminogen activation absorbance, OD405, dose response (AID 1914); format: functional, Streptococcus pyogenes M1 GAS;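 also: secreted streptokinase activity via plasminogen activation per viability signal from cell pellet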
T3 sequence (P10520 whole entry): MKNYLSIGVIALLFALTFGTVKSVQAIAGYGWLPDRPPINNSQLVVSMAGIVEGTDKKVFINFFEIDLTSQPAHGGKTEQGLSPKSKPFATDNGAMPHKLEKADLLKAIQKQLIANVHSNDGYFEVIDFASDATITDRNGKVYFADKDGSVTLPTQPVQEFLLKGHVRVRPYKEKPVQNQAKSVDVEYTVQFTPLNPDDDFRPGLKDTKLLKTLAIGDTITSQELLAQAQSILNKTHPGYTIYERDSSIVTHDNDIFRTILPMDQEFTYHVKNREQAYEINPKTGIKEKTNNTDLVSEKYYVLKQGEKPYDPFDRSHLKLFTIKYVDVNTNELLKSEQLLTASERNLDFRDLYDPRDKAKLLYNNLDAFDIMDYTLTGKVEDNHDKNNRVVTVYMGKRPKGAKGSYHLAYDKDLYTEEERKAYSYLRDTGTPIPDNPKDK

[9] = molecular target: T4, COUP transcription factor 2 (Homo sapiens, UniProt P24468); experiment: Luminescence-based cell-based high throughput dose response assay to identify inhibitors of COUP-TFII (NR2F2).; format: functional;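 also: HEK293 cells transiently cotransfected with COUP-TFII expression vector and reporter; luciferase reporter luminescence driven by COUP-TFII from the pX2-168 reporter plasmid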
T4 sequence (P24468 whole entry): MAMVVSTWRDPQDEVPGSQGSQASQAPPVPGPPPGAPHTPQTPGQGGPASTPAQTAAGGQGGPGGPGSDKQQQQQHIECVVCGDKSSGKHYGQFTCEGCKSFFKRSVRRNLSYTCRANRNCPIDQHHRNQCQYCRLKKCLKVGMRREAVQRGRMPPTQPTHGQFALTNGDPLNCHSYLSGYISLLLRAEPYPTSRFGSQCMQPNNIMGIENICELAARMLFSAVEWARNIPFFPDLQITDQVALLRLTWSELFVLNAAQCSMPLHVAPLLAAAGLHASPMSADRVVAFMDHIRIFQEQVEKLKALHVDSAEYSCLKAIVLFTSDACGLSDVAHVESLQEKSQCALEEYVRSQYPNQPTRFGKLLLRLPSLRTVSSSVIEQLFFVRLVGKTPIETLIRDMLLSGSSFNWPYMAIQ

INS1 = experiment: INS-1E survival protection against cytokine death – cell-based, luminescence, retest, dose response (AID 449756); format: functional; details: Rattus norvegicus;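 also: cell death triggered by IL-1 beta plus TNF-alpha plus IFN-gamma mixture; protective hits raise ATP signal compared with cytokine alone wells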
[10] = molecular target: T5, Probable nicotinate-nucleotide adenylyltransferase (Staphylococcus aureus (strain N315), UniProt P65502); format: functional, Staphylococcus aureus subsp. aureus N315; details: read-out: IC50_Mean;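 as to IC50 Mean: confirmatory dose-response retesting of NadD inhibitor hits first found in an ultra-high-throughput screen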
[11] = molecular target: T5, Probable nicotinate-nucleotide adenylyltransferase; format: functional, Staphylococcus aureus subsp. aureus N315
[12] = molecular target: T6, Small ubiquitin-related modifier 1 (Homo sapiens, UniProt P63165); experiment: SUMO1 protein interaction blockers, potency – biochemical, fluorescence polarization, uHTS hits, dose response (AID 624382); format: functional; details: read-out: IC50_Mean
[13] = molecular target: T6, Small ubiquitin-related modifier 1; experiment: SUMO1 protein-protein binding blockers, potency – biochemical, FRET, dose response (AID 624383); format: functional; details: read-out: IC50_Mean
[14] = molecular target: T7, Rac GTPase-activating protein 1 (Homo sapiens, UniProt Q9H0H5); experiment: blockers of MgcRacGAP-driven Rac1 GTP hydrolysis – biochemical, ADP Hunter fluorescence, primary and confirmatory, confirmation (AID 624330); format: functional
T7 sequence (Q9H0H5 whole entry): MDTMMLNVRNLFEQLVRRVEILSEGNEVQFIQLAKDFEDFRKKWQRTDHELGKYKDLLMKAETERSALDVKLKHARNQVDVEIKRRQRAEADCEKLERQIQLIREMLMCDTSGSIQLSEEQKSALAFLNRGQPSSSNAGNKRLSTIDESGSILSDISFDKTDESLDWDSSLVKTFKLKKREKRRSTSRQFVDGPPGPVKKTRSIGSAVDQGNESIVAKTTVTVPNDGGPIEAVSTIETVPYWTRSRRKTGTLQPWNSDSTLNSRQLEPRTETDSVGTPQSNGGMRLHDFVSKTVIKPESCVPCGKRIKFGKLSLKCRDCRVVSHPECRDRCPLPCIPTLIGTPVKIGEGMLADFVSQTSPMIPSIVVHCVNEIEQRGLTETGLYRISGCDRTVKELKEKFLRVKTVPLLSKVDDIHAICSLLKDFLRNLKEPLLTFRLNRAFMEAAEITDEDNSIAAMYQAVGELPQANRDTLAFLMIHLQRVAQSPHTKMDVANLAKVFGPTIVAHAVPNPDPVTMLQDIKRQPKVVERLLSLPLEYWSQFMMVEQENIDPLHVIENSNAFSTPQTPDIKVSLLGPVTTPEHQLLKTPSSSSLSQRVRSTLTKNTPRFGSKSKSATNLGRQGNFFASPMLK

[15] = viability loss in HeLa cells – cytotoxicity control for MgcRacGAP inhibitor project, dose response (AID 624300); format: functional
[16] = viability inhibitors of stage V gametocytes – luminescence, dose response (AID 1117278); format: functional, cell-based;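 also: gametocytes exposed to compound for 24 hours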
Large T antigen = Large T antigen (Simian virus 40, UniProt P03070); format: functional, Betapolyomavirus macacae;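 also: Confirmatory-stage PubChem screen for compounds that inhibit SV40 T antigen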
[17] = Trypanosoma cruzi growth suppression in host cells – NIH3T3 host cells, beta-gal luminescence, confirmation (AID 2044); format: functional, cell-based;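 also: intracellular parasites grown in NIH/3T3 mouse fibroblasts as host cells; luminescent beta-galactosidase reporter signal from transgenic T. cruzi replicating inside host cells; inhibitors lower the luminescence signal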
[18] = molecular target: T8, Mitochondrial peptide methionine sulfoxide reductase (Bos taurus, UniProt P54149); experiment: Absorbance-based biochemical high throughput dose response assay for activators of Methionine sulfoxide reductase A (MsrA).; format: functional
T8 sequence (P54149 whole entry): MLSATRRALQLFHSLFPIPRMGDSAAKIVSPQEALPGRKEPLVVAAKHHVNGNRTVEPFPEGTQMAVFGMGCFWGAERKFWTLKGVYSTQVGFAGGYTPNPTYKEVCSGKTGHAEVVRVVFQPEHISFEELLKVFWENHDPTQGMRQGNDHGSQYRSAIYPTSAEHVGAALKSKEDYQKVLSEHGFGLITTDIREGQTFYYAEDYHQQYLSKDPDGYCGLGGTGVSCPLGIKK

[19] = viability loss in human Jurkat cells – cell-based, luminescence, cytotoxicity control for P. falciparum gametocyte viability project, dose response (AID 1117277); format: functional;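 also: potency reflects loss of cellular ATP meaning fewer viable cells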
Vero = experiment: cells; format: functional; details: Chlorocebus sabaeus
[20] = molecular target: Glucose-6-phosphate 1-dehydrogenase (Homo sapiens, UniProt P11413); experiment: inhibition of Homo sapiens G6PD, dose series – biochemical, fluorescence, selectivity assay for P. falciparum G6PD inhibitor project, dose response (AID 504792); format: functional
[21] = NIH3T3 cell viability loss – ATP luminescence, mouse fibroblasts, counter-screen, dose response (AID 2010); format: functional, cell-based;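 also: cells exposed to compound for about 90 hours before reading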

Sequence of Mu-type opioid receptor (P35372 whole entry): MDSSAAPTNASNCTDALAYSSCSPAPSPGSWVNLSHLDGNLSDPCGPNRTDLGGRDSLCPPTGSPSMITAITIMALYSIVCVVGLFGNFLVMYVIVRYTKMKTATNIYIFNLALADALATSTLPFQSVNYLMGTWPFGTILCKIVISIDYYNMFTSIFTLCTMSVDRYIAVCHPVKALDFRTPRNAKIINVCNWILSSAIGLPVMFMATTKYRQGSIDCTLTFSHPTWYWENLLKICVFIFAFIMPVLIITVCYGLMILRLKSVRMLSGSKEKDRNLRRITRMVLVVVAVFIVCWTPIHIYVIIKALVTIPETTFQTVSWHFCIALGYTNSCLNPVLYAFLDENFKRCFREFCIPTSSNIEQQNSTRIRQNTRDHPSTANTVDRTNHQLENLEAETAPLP
Sequence of 5-hydroxytryptamine receptor 2A (P35363 whole entry): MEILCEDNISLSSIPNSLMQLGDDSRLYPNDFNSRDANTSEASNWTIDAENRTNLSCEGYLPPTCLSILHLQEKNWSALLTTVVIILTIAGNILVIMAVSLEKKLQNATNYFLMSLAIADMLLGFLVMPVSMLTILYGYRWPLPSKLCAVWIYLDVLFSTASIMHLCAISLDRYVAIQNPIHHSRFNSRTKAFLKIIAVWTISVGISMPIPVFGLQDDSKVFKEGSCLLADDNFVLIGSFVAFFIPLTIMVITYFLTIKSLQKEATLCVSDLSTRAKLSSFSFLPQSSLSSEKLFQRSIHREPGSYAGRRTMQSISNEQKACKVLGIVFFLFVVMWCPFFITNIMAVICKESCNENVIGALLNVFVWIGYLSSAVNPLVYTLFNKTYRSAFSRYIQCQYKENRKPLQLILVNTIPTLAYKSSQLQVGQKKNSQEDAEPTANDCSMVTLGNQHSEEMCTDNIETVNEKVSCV
T5 sequence (P65502 whole entry): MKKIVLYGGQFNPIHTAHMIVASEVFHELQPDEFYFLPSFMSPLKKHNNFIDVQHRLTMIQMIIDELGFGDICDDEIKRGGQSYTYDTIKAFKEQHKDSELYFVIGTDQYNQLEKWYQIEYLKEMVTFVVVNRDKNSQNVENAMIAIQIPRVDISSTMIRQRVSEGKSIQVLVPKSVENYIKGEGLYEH
Sequence of SWI/SNF-related matrix-associated actin-dependent regulator of chromatin subfamily A member 2 (P51531 whole entry): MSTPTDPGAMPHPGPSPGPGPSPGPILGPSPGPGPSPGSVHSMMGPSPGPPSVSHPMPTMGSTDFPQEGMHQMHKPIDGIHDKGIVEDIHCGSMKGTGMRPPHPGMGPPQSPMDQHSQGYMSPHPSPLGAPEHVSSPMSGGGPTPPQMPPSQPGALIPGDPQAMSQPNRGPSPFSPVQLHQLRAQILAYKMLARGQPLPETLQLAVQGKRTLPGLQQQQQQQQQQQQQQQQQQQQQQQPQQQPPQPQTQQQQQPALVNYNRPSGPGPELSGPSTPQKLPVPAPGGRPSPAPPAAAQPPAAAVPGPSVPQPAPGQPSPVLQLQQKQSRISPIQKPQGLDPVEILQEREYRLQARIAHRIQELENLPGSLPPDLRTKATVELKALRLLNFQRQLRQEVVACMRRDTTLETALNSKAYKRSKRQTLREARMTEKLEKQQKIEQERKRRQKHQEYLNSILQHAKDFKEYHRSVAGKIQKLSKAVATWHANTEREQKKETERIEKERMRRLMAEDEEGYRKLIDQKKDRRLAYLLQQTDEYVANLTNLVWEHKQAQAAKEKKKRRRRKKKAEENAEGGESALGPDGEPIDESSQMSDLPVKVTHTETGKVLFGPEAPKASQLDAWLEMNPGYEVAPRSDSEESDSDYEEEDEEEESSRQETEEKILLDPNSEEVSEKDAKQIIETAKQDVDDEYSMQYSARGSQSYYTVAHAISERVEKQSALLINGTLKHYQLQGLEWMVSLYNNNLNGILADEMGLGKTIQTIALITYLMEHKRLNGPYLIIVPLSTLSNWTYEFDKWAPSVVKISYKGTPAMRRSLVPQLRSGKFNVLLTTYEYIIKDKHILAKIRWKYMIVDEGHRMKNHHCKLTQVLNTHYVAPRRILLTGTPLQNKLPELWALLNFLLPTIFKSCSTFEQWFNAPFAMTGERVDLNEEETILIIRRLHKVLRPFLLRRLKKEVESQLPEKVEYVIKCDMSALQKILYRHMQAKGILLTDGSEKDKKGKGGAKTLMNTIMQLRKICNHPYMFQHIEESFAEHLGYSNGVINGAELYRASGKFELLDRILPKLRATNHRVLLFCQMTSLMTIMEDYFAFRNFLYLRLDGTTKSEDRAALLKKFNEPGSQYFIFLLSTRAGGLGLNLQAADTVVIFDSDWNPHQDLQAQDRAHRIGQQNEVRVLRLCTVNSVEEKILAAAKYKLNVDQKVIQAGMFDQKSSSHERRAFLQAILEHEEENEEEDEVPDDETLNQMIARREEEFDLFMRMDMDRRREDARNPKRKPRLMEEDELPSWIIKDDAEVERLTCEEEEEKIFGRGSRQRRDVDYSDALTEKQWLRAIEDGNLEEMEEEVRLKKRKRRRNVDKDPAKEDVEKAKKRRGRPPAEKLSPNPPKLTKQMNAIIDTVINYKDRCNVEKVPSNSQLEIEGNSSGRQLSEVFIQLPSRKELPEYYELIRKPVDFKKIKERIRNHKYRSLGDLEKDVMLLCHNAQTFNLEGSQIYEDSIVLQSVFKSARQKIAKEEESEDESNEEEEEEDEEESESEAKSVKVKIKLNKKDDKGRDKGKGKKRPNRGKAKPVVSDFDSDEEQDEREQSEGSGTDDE
T6 sequence (P63165 whole entry): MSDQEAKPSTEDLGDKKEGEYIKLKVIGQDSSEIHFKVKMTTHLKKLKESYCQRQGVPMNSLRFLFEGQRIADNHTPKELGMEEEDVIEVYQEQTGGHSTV
Sequence of Cytochrome P450 3A4 (P08684 whole entry): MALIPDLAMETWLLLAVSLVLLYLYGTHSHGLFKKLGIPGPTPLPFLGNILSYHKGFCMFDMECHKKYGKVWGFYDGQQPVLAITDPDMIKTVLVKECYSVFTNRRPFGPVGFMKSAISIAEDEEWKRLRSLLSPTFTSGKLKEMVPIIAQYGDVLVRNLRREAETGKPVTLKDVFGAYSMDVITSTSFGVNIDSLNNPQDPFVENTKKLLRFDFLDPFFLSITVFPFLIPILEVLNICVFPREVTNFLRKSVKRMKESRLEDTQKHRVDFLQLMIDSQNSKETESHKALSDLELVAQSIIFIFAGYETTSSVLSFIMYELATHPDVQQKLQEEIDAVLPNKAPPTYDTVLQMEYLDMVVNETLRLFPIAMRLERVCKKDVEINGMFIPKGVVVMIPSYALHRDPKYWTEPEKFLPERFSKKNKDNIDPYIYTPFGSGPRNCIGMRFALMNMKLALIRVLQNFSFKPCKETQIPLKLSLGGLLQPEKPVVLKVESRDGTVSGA
Sequence of Glucose-6-phosphate 1-dehydrogenase (P11413 whole entry): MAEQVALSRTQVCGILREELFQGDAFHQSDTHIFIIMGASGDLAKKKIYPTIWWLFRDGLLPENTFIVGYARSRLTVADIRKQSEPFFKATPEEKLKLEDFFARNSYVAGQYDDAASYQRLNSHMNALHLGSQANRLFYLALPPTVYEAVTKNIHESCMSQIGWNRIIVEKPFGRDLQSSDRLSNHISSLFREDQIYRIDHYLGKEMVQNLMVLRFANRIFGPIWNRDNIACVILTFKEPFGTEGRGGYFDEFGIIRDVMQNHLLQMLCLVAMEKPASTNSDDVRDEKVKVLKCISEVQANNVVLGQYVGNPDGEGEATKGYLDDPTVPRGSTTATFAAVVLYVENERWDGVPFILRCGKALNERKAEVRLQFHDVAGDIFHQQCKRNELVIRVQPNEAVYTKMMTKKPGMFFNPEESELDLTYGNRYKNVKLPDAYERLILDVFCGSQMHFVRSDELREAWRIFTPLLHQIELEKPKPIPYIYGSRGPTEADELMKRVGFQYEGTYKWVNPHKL
Sequence of Large T antigen (P03070 whole entry): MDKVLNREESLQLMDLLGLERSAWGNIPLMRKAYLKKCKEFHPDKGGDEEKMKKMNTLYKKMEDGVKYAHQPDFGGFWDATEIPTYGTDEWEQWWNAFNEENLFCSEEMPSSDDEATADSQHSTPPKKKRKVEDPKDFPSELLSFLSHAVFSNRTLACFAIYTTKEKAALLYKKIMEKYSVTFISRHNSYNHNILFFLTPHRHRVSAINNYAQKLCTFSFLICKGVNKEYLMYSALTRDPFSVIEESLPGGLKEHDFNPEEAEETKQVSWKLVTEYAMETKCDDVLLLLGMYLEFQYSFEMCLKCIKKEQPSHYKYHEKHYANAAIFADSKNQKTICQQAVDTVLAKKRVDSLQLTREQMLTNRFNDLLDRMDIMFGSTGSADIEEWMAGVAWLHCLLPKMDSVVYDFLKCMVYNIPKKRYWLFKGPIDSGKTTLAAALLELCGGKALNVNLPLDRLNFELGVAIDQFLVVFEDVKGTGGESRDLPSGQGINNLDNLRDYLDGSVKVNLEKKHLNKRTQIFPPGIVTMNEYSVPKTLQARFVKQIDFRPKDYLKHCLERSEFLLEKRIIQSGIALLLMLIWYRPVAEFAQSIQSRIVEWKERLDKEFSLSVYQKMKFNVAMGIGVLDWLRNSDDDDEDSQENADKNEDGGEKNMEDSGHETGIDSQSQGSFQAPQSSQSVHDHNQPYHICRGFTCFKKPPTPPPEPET

Cc1nn(Cc2c(Cl)cccc2Cl)c(C)c1NC(=O)c1cnn2c(C(F)F)cc(-c3ccccc3)nc12
AC50 [1]: 26 µM (active) | AC50 (Cytochrome P450 1A2): 31.6 µM (inconclusive) | AC50 (Cytochrome P450 3A4): inconclusive

CNC[C@H](O)c1cccc(O)c1 [PHENYLEPHRINE HYDROCHLORIDE]
EC50 [2]: 19.3 µM (inactive) | EC50 (Mu-type opioid receptor): 92.4 µM (inactive)

O=C(COC(=O)c1nc(Cl)c(Cl)c(Cl)c1Cl)c1ccc[nH]1
EC50 [3]: > 91.1 µM (inactive) | EC50 [4]: > 91.1 µM (inactive)

COc1ccc(Cc2nnc(S)n2NC(=O)Nc2ccc(Cl)c(Cl)c2)cc1
EC50 (Streptococcus): 63.3 µM (active) | IC50 [5]: 54.2 µM (inactive) | IC50 [6]: 76.2 µM (inactive) | IC50 [7]: 17.7 µM (inactive) | EC50 [8]: 3.39 µM (active) | EC50 (Streptokinase A): 20.3 µM (active)

CC(C)OCCCNc1[nH]cnc2c3cc(F)ccc3nc1-2
AC50 [1]: > 52 µM (inactive) | IC50 [9]: 6.62 µM (active) | AC50 (INS1): 1.63 µM (active)

Cc1cc(NCCCCCCCNc2cc(C)nc3cc([N+](=O)[O-])ccc23)c2ccc([N+](=O)[O-])cc2n1
IC50 [10]: 23.2 µM (active) | IC50 [11]: 15.2 µM (active) | IC50 [12]: > 66.6 µM (inactive) | IC50 [13]: 2.12 µM (active) | IC50 [14]: 26.1 µM (active) | CC50 [15]: 37.8 µM (active)

O=c1[nH]sc2cc(F)ccc12
IC50 [16]: > 36.3 µM (inactive) | EC50 [3]: > 91.1 µM (inactive) | EC50 [4]: > 91.1 µM (inactive) | IC50 (Large T antigen): 33.3 µM (active) | EC50 [17]: 0.202 µM (active) | EC50 [18]: > 104 µM (inactive) | IC50 [19]: 22.2 µM (inactive) | CC50 (Vero): > 25 µM (active) | IC50 [20]: > 80 µM (inactive) | EC50 [21]: 16.1 µM (active)

CCCN(CCc1ccccc1)C1CCc2c(O)cccc2C1 (centres undefined)
EC50 [2]: 0.0038 µM (active) | EC50 (Mu-type opioid receptor): 92.6 µM (inactive)
